Measured values from ChEMBL document CHEMBL1795228, “Air to lung partition coefficients for volatile organic compounds and blood to lung partition coefficients for volatile organic compounds and drugs” (Eur J Med Chem, 2008).

What was measured:
[1] = In-vivo plasma to lung partition coefficients of the compound, logP(lung) in rat; type: ADME, cell-free
[2] = In-vitro air to lung partition coefficients of the compound, logK(lung) (human/rat); conditions: octanol/water
[3] = In-vitro air to blood partition coefficients of the compound, logK(blood) (human/rat); conditions: octanol/water
[4] = In-vitro blood to lung partition coefficients of the compound, logP(lung) (human/rat)

Compound | logP(lung) [1] | logK(lung) [2] | logK(blood) [3] | logP(lung) [4]
O=C(O)c1ccc(-c2ccccc2)cc1 | -0.55 |  |  | 
C=C |  | -0.25 | -0.53 | 0.28
FC(F)OC(F)(F)C(F)Cl (stereo unspecified) |  | 0.56 | 0.35 | 0.21
FC(F)(F)CCl |  | 0.34 | 0.14 | 0.2
CCC(C)(C)C |  | -0.22 | -0.59 | 0.37
FC(F)(F)c1ccc(Cl)cc1 |  | 1.63 | 1.43 | 0.2
CCC1(C)C(=O)NC(=O)NC1=O | -0.21 |  |  | 
CCCC1(CC)C(=O)NC(=O)NC1=O | 0.16 |  |  | 
CCCCCCC1(CC)C(=O)NC(=O)NC1=O | 0.08 |  |  | 
CCCCCCCC1(CC)C(=O)NC(=O)NC1=O | 0.12 |  |  | 
CCCCCCCCC1(CC)C(=O)NC(=O)NC1=O | 0.49 |  |  | 
Nc1cc(Cl)c(S(N)(=O)=O)cc1-c1nnn[nH]1 | 0.6 |  |  | 
CCCC(C)C |  | -0.1 | -0.39 | 0.29
CCC(C)CC |  | -0.05 | -0.37 | 0.32
CCCCCC1(CC)C(=O)NC(=O)NC1=O | 0.22 |  |  | 
CC(C)=CCN1CC[C@]2(C)c3cc(O)ccc3C[C@H]1[C@H]2C [(+)-PENTAZOCINE] | 1.43 |  |  | 
CC(C)=O [ACETONE] |  | 2.2 | 2.36 | -0.16
CCC1(CC)C(=O)NC(=O)NC1=O [BARBITAL] | 0 |  |  | 
c1ccccc1 [BENZENE] |  | 1.08 | 1.05 | 
CC(C)NCC(O)COc1ccc(CCOCC2CC2)cc1 (stereo unspecified) [BETAXOLOL] | 2.29 |  |  | 
OC(CCN1CCCCC1)(c1ccccc1)C1CC2C=CC1C2 (stereo unspecified) [BIPERIDEN] | 1.79 |  |  | 
CC(C)NCC(O)COc1ccc(COCCOC(C)C)cc1 (stereo unspecified) [BISOPROLOL] | 1.62 |  |  | 
CCCC1O[C@@H]2C[C@H]3[C@@H]4CCC5=CC(=O)C=C[C@]5(C)[C@H]4[C@@H](O)C[C@]3(C)[C@]2(C(=O)CO)O1 (stereo partly specified) [BUDESONIDE] | 0.94 |  |  | 
C=CC=C [BUTADIENE] |  | -0.32 | 0.09 | -0.41
CCC(C)=O [BUTANONE] |  | 2.01 | 2.24 | -0.23
CCCCC1(CC)C(=O)NC(=O)NC1=O [BUTETHAL] | 0.18 |  |  | 

Compound | logP(lung) [1] | logK(lung) [2] | logK(blood) [3] | logP(lung) [4]
[C-]#[O+] [CARBON MONOXIDE] |  | -1.69 | -1.67 | -0.02
Cc1nnc(SCC2=C(C(=O)O)N3C(=O)[C@@H](NC(=O)Cn4cnnn4)[C@H]3SC2)s1 [CEFAZOLIN] | -0.78 |  |  | 
ClC(Cl)Cl [CHLOROFORM] |  | 1.12 | 1.15 | -0.03
C=CC(=C)Cl [CHLOROPRENE] |  | 1.12 |  | 
COC(=O)[C@H]1[C@@H](OC(=O)c2ccccc2)C[C@@H]2CC[C@H]1N2C [COCAINE] | 1.06 |  |  | 
CN1C(=O)CC[C@H]1c1cccnc1 [COTININE] | -0.18 |  |  | 
C1CCCCC1 [CYCLOHEXANE] |  | 0.43 | 0.17 | 0.26
C1CC1 [CYCLOPROPANE] |  | -0.51 | -0.21 | -0.3
Cc1onc(-c2c(Cl)cccc2Cl)c1C(=O)N[C@@H]1C(=O)N2[C@@H]1SC(C)(C)[C@@H]2C(=O)O [DICLOXACILLIN] | -0.92 |  |  | 
COc1cccc2c1C(=O)c1c(O)c3c(c(O)c1C2=O)C[C@@](O)(C(=O)CO)C[C@@H]3O[C@H]1C[C@H](N)[C@H](O)[C@H](C)O1 [DOXORUBICIN] | 0.53 |  |  | 
CC1(C)[C@@H](O)CC[C@]2(C)[C@H]3C(=O)C=C4[C@@H]5C[C@@](C)(C(=O)O)CC[C@]5(C)CC[C@@]4(C)[C@]3(C)CC[C@@H]12 [ENOXOLONE] | -0.66 |  |  | 
CC [ETHANE] |  | -1.28 | -1.02 | -0.26
CCOc1ccccc1C(N)=O [ETHENZAMIDE] | -0.03 |  |  | 
CCOCC [ETHER] |  | 1.14 | 1.11 | 0.03
C#C [ETHYNE] |  | -0.06 | -0.06 | 0
FC(F)(F)C(Cl)Br (stereo unspecified) [HALOTHANE] |  | 0.46 | 0.57 | -0.11
[He] [HELIUM] |  | -1.98 | -2 | 0.02
CCCCCCC [HEPTANE] |  | 0.4 | 0.5 | -0.1
CCCCCC [HEXANE] |  | 0 | 0.21 | -0.21
CN1C(=O)NC(=O)C(C)(C2=CCCCC2)C1=O (stereo unspecified) [HEXOBARBITAL] | 0.45 |  |  | 
CCc1ccc(C(=O)C(C)CN2CCCC2)cc1 (stereo unspecified) [INAPERISONE] | 1.52 |  |  | 
CC(C)CO [ISOBUTANOL] |  | 2.6 | 2.92 | -0.32
FC(F)OC(Cl)C(F)(F)F (stereo unspecified) [ISOFLURANE] |  | 0.2 | 0.2 | 0
O=C1Nc2ccc(Cl)cc2C(c2ccccc2Cl)=NC1O (stereo unspecified) [LORAZEPAM] | 0.44 |  |  | 
COC(F)(F)C(Cl)Cl [METHOXYFLURANE] |  | 1.2 | 1.28 | -0.08
CO [METHYL ALCOHOL] |  | 3.24 | 3.41 | -0.17

Compound | logP(lung) [1] | logK(lung) [2] | logK(blood) [3] | logP(lung) [4]
CC1CCCC1 [METHYLCYCLOPENTANE] |  | 0.23 | -0.07 | 0.3
ClCCl [METHYLENE CHLORIDE] |  | 0.76 | 1.12 | -0.36
COC(=O)C(c1ccccc1)C1CCCCN1 (stereo unspecified) [METHYLPHENIDATE] | 1.54 |  |  | 
COn1cc(C(=O)O)c(=O)c2cc3c(cc21)OCO3 [MILOXACIN] | -0.29 |  |  | 
CCn1cc(C(=O)O)c(=O)c2ccc(C)nc21 [NALIDIXIC ACID] | -0.48 |  |  | 
CN1CCC[C@H]1c1cccnc1 [NICOTINE] | 0.32 |  |  | 
[N-]=[N+]=O [NITROUS OXIDE] |  | -0.37 | -0.34 | 0
Cc1ccccc1C [O-XYLENE] |  | 1.94 | 1.42 | 0.52
CC1(C)S[C@@H]2[C@H](NC(=O)COc3ccccc3)C(=O)N2[C@H]1C(=O)O [PENICILLIN V] | -0.8 |  |  | 
c1ccc(C2(N3CCCCC3)CCCCC2)cc1 [PHENCYCLIDINE] | 1.61 |  |  | 
CCC1(c2ccccc2)C(=O)NC(=O)NC1=O [PHENOBARBITAL] | -0.08 |  |  | 
O=C1NC(=O)C(c2ccccc2)(c2ccccc2)N1 [PHENYTOIN] | -0.1 |  |  | 
CC(C)NCC(O)COc1cccc2[nH]ccc12 (stereo unspecified) [PINDOLOL] | 1.01 |  |  | 
c1cc2ccc3cccc4ccc(c1)c2c34 [PYRENE] | 0.35 |  |  | 
Cc1nc(Nc2ccc(F)cc2)nc(N2CCc3ccccc3C2C)c1C.Cl (stereo unspecified) [REVAPRAZAN HYDROCHLORIDE] | 1.34 |  |  | 
O=C(O)c1ccccc1O [SALICYLIC ACID] | -0.72 |  |  | 
O=c1[nH]c(=O)n(C2CCCO2)cc1F (stereo unspecified) [TEGAFUR] | -0.59 |  |  | 
CN1C(C(=O)Nc2ccccn2)=C(O)c2sccc2S1(=O)=O [TENOXICAM] | -0.49 |  |  | 
CN(C/C=C/C#CC(C)(C)C)Cc1cccc2ccccc12 [TERBINAFINE] | 0.41 |  |  | 
Cn1c(=O)c2[nH]cnc2n(C)c1=O.O [THEOPHYLLINE] | -0.15 |  |  | 
CCCC(C)C1(CC)C(=O)NC(=S)NC1=O (stereo unspecified) [THIOPENTAL] | 0.08 |  |  | 
CSc1ccc2c(c1)N(CCC1CCCCN1C)c1ccccc1S2 (stereo unspecified) [THIORIDAZINE] | 1.13 |  |  | 
CC(C)(C)NC[C@H](O)COc1nsnc1N1CCOCC1 [TIMOLOL] | 1.43 |  |  | 
Cc1cccc(OCC(O)CNC(C)C)c1 (stereo unspecified) [TOLIPROLOL] | 0.89 |  |  | 
CCCC(CCC)C(=O)O [VALPROIC ACID] | -0.38 |  |  | 
